PMC9057582, “HIF inhibitor 32-134D eradicates murine hepatocellular carcinoma in combination with anti-PD1 therapy” (The Journal of Clinical Investigation, 2022)
Like-named read-outs stand apart in the source and are kept apart here. Where a SMILES comes first, the peptide text is derived from it. The star is where a group is joined. Cbz = O=C(OCc1ccccc1)*

Columns and labels:
[1] = system: HIF transcriptional activity; test: HIF-dependent luciferase reporter assay (FLuc/RLuc ratio) in Hep3B-c1 cells; format: cell-based; conditions: Homo sapiens, 1% O2, 24 hours, read-out: IC50, inhibition of HIF-dependent reporter gene expression
Source text: The NCI CellMiner database contains expression data for over 25,000 mRNAs in 60 human cancer cell lines that have been exposed to more than 20,000 chemical compounds ([49]). We searched CellMiner for a compound that induced changes in gene expression that were highly correlated with those induced by acriflavine, but which was structurally unrelated to acriflavine. Compounds that satisfied the above criteria were identified and subsequently analyzed in Hep3B-c1 cells ([50]), which are stably transfected with HIF-dependent reporter plasmid p2.1, in which firefly luciferase (FLuc) coding sequences are located downstream from a hypoxia-response element (HRE) and a basal SV40 promoter; and control reporter pSVR, in which Renilla luciferase (RLuc) coding sequences are downstream of the basal SV40 promoter only (Figure 1A). The FLuc/RLuc ratio in cells exposed to 1% O2 for 24 hours is a specific measure of HIF-dependent gene expression.
Figure 1 Identification of HIF inhibitors. (A) Hep3B-c1 cells were stably transfected with firefly luciferase (FLuc) reporter p2.1, which contains a hypoxia-response element (HRE), and Renilla luciferase (RLuc) reporter pSVR. (B) Hep3B-c1 cells were incubated with vehicle (Veh; 0.1% DMSO; blue bars) or 10 μM 32-134D (red bars) at 20% O2 (n = 6) or 1% O2 (n = 12) for 24 hours. Cell lysates were assayed for Fluc/Rluc activity (mean ± SEM); *P < 0.05 versus vehicle (χ^2 test). (C) Chemical structures and IC50 values for HIF inhibitors. (D and E) Hep3B cells were exposed to 20% O2 with vehicle, or 1% O2 with vehicle (blue bar), 32-134D (red bars), 33-063 (green bars), or PT2385 (brown bars) for 24 hours and CA9 (D) and EPO (E) mRNAs were quantified by RT-qPCR. […] (F) Hep3B cells were exposed to 20% or 1% O2 in the presence of vehicle or 1% O2 in the presence of 5 μM 32-134D (n = 3 each) for 24 hours. […]
Hep3B-c1 cells ([50]) were seeded on 24-well plates. […] FLuc/RLuc ratios were determined using the Dual Luciferase Reporter Assay System (Supplemental Table 6) and the VICTOR Nivo plate reader (PerkinElmer).

[2] = system: HIF target genes in Hep3B cells; test: RT-qPCR of endogenous HIF target gene expression in Hep3B cells; format: cell-based, human; conditions: Hep3B cells, 1% O2, 24 hours
Source text: Based on this hit, we synthesized analogs in which either halogen substitutions to the indole groups were altered or the central thiazole was replaced by imidazole, isoxazole, oxadiazole, oxazole, pyrazinone, pyridazine, pyrazine, pyrazole, pyridine, thiadiazole, triazine, or triazole. […] We focused on analyzing the effect of the bis-bromoindole thiazole 32-134D and the bis-indole thiadiazole 33-063 on endogenous HIF target gene expression in Hep3B cells. […] For comparison, we tested the effect of PT2385, which inhibited EPO, NDRG1, ANGPTL4, and VEGFA expression but had no effect on CA9, which is consistent with its HIF-2–selective mechanism of action ([44]). None of the compounds had any effect on RPL13A expression, which is neither induced by hypoxia nor regulated by HIFs (Supplemental Figure 2D).
Human Hep3B and mouse Hepa1-6 cells were purchased from ATCC and grown in high-glucose (4.5 mg/mL) Dulbecco’s modified Eagle’s medium supplemented with 10% (vol/vol) fetal bovine serum and 1% penicillin/streptomycin at 37°C in a 5% CO2/95% air incubator (Supplemental Table 6). Human cell line identity was authenticated by analysis of short tandem repeats, and all cell lines were maintained mycoplasma free, using PCR-based assays conducted at the Johns Hopkins University Genetic Resources Core Facility (JHU GRCF). Cells were subjected to hypoxia in a controlled atmosphere chamber (PLAS Labs) with ambient gas mixture containing 1% O2 and 5% CO2.
(§1) RNA was extracted using TRIzol Reagent. Quantitative real-time PCR was conducted using SYBR Green PCR Master Mix and reactions were run using a Bio-Rad thermal cycler. Primer sequences and reagent sources are listed in Supplemental Table 5. The mRNA expression of target genes was normalized to the expression of 18S rRNA and the fold change (FC) was calculated based on the threshold cycle (Ct) as FC = 2^–Δ(ΔCt), where ΔCt = Cttarget gene – Ct18S rRNA and Δ(ΔCt) = ΔCttreatment – ΔCtcontrol. For RNA-seq, total RNA was isolated and treated with DNase (Qiagen). The JHU GRCF High-Throughput Sequencing facility prepared libraries and performed RNA-seq. The RNA-seq data were processed and interpreted using Genialis Expressions software (https://www.genialis.com/expressions/). An automated data analysis pipeline run in the Genialis platform consisted of the following: Sequence quality checks were performed on raw and trimmed reads with FastQC. Bbduk was used to trim adapters and filter out poor quality reads. Trimmed reads were then mapped to the STAR index (ENSEMBL 100) reference genome using the STAR ([93]) aligner. Gene expression levels were quantified with featureCounts ([94]), and differential gene expression analyses were performed with DESeq2 ([95]). […] Differential expression was determined with an FDR of less than 0.05 and mRNA FC of greater than 1.5 to identify hypoxia-induced genes and genes inhibited by 32-134D. Data used in this study have been deposited in the NCBI Gene Expression Omnibus database (GEO GSE195997).
Supplemental Figure 2. Effect of 32-134D on gene expression in Hep3B cells. (A-D) Hep3B cells were exposed to 20% O2 in the presence of vehicle (first bar; no fill) or 1% O2 in the presence of: vehicle (blue bar) or the indicated concentration of 32-134D (bars with red fill) or 33-063 (bars with green fill), or PT2385 (bars with brown fill) for 24 hours and the indicated mRNAs were quantified by reverse transcription and quantitative real-time PCR (qPCR). Data are presented as mean + SEM (n = 3). *p < 0.05 vs white; **p < 0.01 vs blue (ANOVA with Bonferroni post-test). […]
(G-H) Analysis of HIF-1a (G) and HIF-2a (H) […]
mRNA expression in Hep3B cells exposed to vehicle or 32-134D at 20% or 1% O2 for 24

Hepa1-6 mouse HCC cells = test: RT-qPCR of hypoxia-induced gene expression in Hepa1-6 cells; format: cell-based; conditions: Hepa1-6, 1% O2, 24 hours
Description: Next, we analyzed Hepa1-6, which is a mouse HCC cell line. […] CXCL1, IL-6, and IL-10 were not induced by hypoxia, whereas hypoxia-induced IL-22 expression was inhibited by 32-134D (P < 0.05; Figure 3C).
Figure 3 Effect of 32-134D treatment on hypoxia-induced gene expression in Hepa1-6 cells. (A–C) Cells were exposed to 20% O2 and vehicle (white bars), 1% O2 and vehicle (blue bars), or 1% O2 and 32-134D (red bars) for 24 hours and mRNAs were quantified by RT-qPCR and normalized to white (mean ± SEM, n = 4). *P < 0.05 versus white; ^#P < 0.05 versus blue (ANOVA with Bonferroni’s post hoc test).
as §1
Supplemental Figure 7. Effect of 32-134D on gene expression in Hepa1-6 cells. Cells were exposed to 20% O2 and vehicle (white bar) or 1% O2 and vehicle (blue bar), 2.5-10 […]
for 24 hours and mRNAs were quantified by RT-qPCR and normalized to white (mean + SEM, n = 4). *p < 0.05 vs white; #p < 0.05 vs blue (ANOVA with Bonferroni post-test).
(1 picture or pasted object on this page, not shown here)

[3] = system: HIF-1α and HIF-2α protein; test: Immunoblot of nuclear extracts of Hep3B cells; format: cell-based, human; conditions: 5 μM MG132 during last 8 hours, 5 μM 32-134D
Description: Figure 1 Identification of HIF inhibitors. (A) Hep3B-c1 cells were stably transfected with firefly luciferase (FLuc) reporter p2.1, which contains a hypoxia-response element (HRE), and Renilla luciferase (RLuc) reporter pSVR. (B) Hep3B-c1 cells were incubated with vehicle (Veh; 0.1% DMSO; blue bars) or 10 μM 32-134D (red bars) at 20% O2 (n = 6) or 1% O2 (n = 12) for 24 hours. Cell lysates were assayed for Fluc/Rluc activity (mean ± SEM); *P < 0.05 versus vehicle (χ^2 test). (C) Chemical structures and IC50 values for HIF inhibitors. (D and E) Hep3B cells were exposed to 20% O2 with vehicle, or 1% O2 with vehicle (blue bar), 32-134D (red bars), 33-063 (green bars), or PT2385 (brown bars) for 24 hours and CA9 (D) and EPO (E) mRNAs were quantified by RT-qPCR. […] (F) Hep3B cells were exposed to 20% or 1% O2 in the presence of vehicle or 1% O2 in the presence of 5 μM 32-134D (n = 3 each) for 24 hours. RNA sequencing identified genes with hypoxia-induced expression (blue circle) and genes that were inhibited by 32-134D (orange circle), based on FDR < 0.05 and fold change > 1.5. (G) Hep3B cells were exposed to 20% or 1% O2 for 24 hours in the presence of vehicle or 5 μM 32-134D, nuclear extracts were prepared, and immunoblot assays were performed. […]

[4] = cited from earlier work
[5] = system: HIF-1, HIF-2 and p300 recruitment to HREs; test: ChIP-qPCR of HRE occupancy in Hep3B cells; format: cell-based, human; conditions: 16 hours, 5 µM 32-134D or 10 µM PT2385
Description: Coadministration of the proteasome inhibitor MG-132 blocked the effect of 32-134D on HIF-1α protein levels (Figure 1H). […] Taken together, the results presented in Figure 1 and Supplemental Figures 1–3 indicate that 32-134D induces HIF-α subunit degradation, thereby inhibiting activation of HIF-1 and HIF-2 target gene transcription.
Cells were seeded overnight and then exposed to 20% or 1% O2 in the presence of compound or vehicle for 16 hours. Protein was cross-linked to DNA by addition of 37% formaldehyde to culture medium for 10 minutes at 37°C and quenched by addition of 0.1 M glycine. Cells were washed with and collected in 5 mL of cold PBS containing PIs. Cells were pelleted and resuspended in 200 μL of SDS lysis buffer (50 mM Tris-HCl [pH 8.1], 10 mM EDTA, 1% SDS) containing PIs and incubated on ice for 10 minutes. Lysates were sonicated to produce DNA fragments ranging from 200 to 900 bp and centrifuged for 10 minutes at 4°C. Supernatants were collected and diluted 10-fold with dilution buffer (16.7 mM Tris-HCl [pH 8.1], 167 mM NaCl, 1.2 mM EDTA, 0.01% SDS, 1.1% Triton X-100) with PIs, precleared with 20 μL of salmon sperm DNA/protein A agarose slurry, and a 20-μL aliquot was reserved as input control. Antibody (2 μg; see Supplemental Table 6) was added and samples were rotated overnight at 4°C. Immune complexes were precipitated with 50 μL of salmon sperm DNA/protein A agarose slurry. Pelleted beads were washed serially using low-salt wash buffer (20 mM Tris-HCl [pH 8.1], 150 mM NaCl, 2 mM EDTA, 0.1% SDS, 1% Triton X-100); high-salt wash buffer (20 mM Tris-HCl [pH 8.1], 500 mM NaCl, 2 mM EDTA, 0.1% SDS, 1% Triton X-100); LiCl wash buffer (10 mM Tris-HCl [pH 8.1], 0.25 M LiCl, 1% Nonidet P-40, 1% deoxycholate, 1 mM EDTA); and TE buffer (10 mM Tris-HCl [pH 8.1], 1 mM EDTA). Elution buffer (1% SDS, 0.1 M NaHCO3) was added and eluates were heated at 65°C overnight to reverse cross-linking. Eluates were treated with proteinase K for 1 hour at 45°C and DNA was purified by extraction in phenol/chloroform/isoamyl alcohol (25:24:1, v/v/v) and isopropanol precipitation. […]

[6] = von Hippel-Lindau syndrome patients

With Brc1ccc2c(-c3nc(-c4c[nH]c5ccc(Br)cc45)cs3)c[nH]c2c1 [Compound 11-88, reference compound] the IC50 [1] was 2.9 µM.
In the case of c1ccc2c(-c3nsc(-c4c[nH]c5ccccc45)n3)c[nH]c2c1 [Compound 33-063], the “hypoxia-induced ANGPTL4, VEGFA, NDRG1 and EPO mRNA expression” value [2] is reported as “significantly inhibited”, the “hypoxia-induced CA9 mRNA expression (activated by HIF-1 only)” value [2] is reported as “significantly inhibited” and the “RPL13A mRNA expression” value (Hepa1-6 mouse HCC cells) is reported as “no effect”. The “hypoxia-induced ANGPTL4, EPO, PGF, and VEGFA mRNA expression” value (Hepa1-6 mouse HCC cells; 2.5-10 µM) was “significant dose-dependent inhibition” and the IC50 [1] was 2.2 µM.
In the case of CC(C)C[C@@H](C=O)NC(=O)[C@H](CC(C)C)NC(=O)[C@H](CC(C)C)NC(=O)OCc1ccccc1 [MG-132, reference compound] (Cbz-Leu-Leu-Leu-aldehyde), the “effect of 32-134D on HIF-1α protein levels on coadministration” value [3] is reported as “blocked”.
In the case of CS(=O)(=O)c1ccc(Oc2cc(F)cc(C#N)c2)c2c1[C@H](O)C(F)(F)C2 [PT2385, reference compound], the “patients with grade 3 anemia” value ([4]; phase I trial) is listed as 10%, the “hypoxia-induced ANGPTL4, VEGFA, NDRG1 and EPO mRNA expression” value [2] is listed as “inhibited” and the “hypoxia-induced CA9 mRNA expression (activated by HIF-1 only)” value [2] is listed as “no effect”. The “hypoxia-induced recruitment of HIFs and p300 to EPO and ANGPTL4 HREs” value [5] was “inhibited” and the “ANGPTL4, PGF, and VEGFA mRNA expression, potency compared with 32-134D and 33-063” value (Hepa1-6 mouse HCC cells; 5-10 µM) was “less potent inhibitor”.
For CS(=O)(=O)c1ccc(Oc2cc(F)cc(C#N)c2)c2c1[C@H](O)[C@H](F)[C@@H]2F [belzutifan/PT2977], the “patients with decreased blood hemoglobin levels” value [4, 6] is listed as 90% and the “patients with grade 3 anemia” value [4, 6] is listed as 7%.
